Experiments:
[1] = test system: Psud. aeruginosa (NCTC 10490); assay: Phylactic effect, Psud. aeruginosa infection; assay type: in vivo; conditions: ICR mouse; compound 500 μg/ml, 0.2 ml i.p. one day before infection i.p. 1×10^7 /mouse; after 7 days of infection
Procedure: (§1) A solution of a compound of the invention in physiological saline (500 μg/ml), 0.2 ml was intraperitoneally injected into ICR mouse (20 mice per group). After a day, E. coli (JC-2) and Psud. aeruginosa (NCTC 10490) were incubated through intraperitoneal route so as to be at concentration of 1×10^7 /mouse. Survival rate after 7 days of infection was measured.

BCG killed vaccine = assay: Enhancing action on BCG vaccine (adjuvant activity), 24 hours foot-pad test; assay type: in vivo; conditions: ICR mouse; s.c. 0.2 ml mixture of BCG killed vaccine (100 μg/ml) and compound in Freund's incomplete adjuvant (1000 μg/ml); tuberculin 10 μg after 14 days; measured after 24 hours
Procedure: (1) Enhancing action on BCG vaccine (adjuvant activity)
0.2 ml of an equivalent weight mixture of a solution of BCG killed vaccine in physiological saline (100 μg/ml) and a solution of a compound of the invention in Freund's incomplete adjuvant (1000 μg/ml) was subcutaneously injected to the back of ICR mouse (one group consisting of 7 mice). After 14 days, 10 μg of tuberculin was intradermally injected into the hind foot-pad. Swelling of the foot-pad was measured after 24 hours (24 hours foot-pad test).
The control is the above mentioned mixture excluded a compound of the invention.

[2] = test system: B type hepatitis vaccine (HBs); assay: Enhancing effect on hepatitis vaccine (adjuvant activity), IgG antibody by ELISA; assay type: in vivo; conditions: CDF1 mouse; for Anti HBs-ELISA unit, Primary response serum: i.p. 0.2 ml compound (100 μg/ml) mixed with HBs vaccine, serum at 3 weeks; for Anti HBs-ELISA unit, Secondary response serum: second i.p. injection of 0.2 ml test solution, serum at 2 weeks
Procedure: (2) Enhancing effect on hepatitis vaccine (adjuvant activity)
A compound of the invention was dissolved or suspended in physiological saline (100 μg/ml), and mixed with a solution of B type hepatitis vaccine (HBs) in physiological saline (100 μg/m) at an equivalent weight ratio to obtain the test solution. A solution excluded the compound of the invention from the test solution was used as control.
The test solution (0.2 ml) was intraperitoneally injected into CDF1 mouse (one group consisting of 10 mice). At 3 weeks after the administration, a blood was taken from the intravenous vein in eyeground of each the mice and centrifuged to obtain serum (primary response serum). Further, 0.2 ml of the test solution was again intraperitoneally injected into each mice, and at 2 weeks stage, serum was separated in the similar way (secondary response serum).
Value for IgG antibody against B type hepatitis virus of the resulting serum was measured by ELISA method.

Meth A fibrosarcomas = assay: Antitumour effect, Meth A fibrosarcoma; assay type: in vivo; conditions: BALB/C mouse; s.c. 0.2 ml mixture of Meth A cells (1×10^6 cells/ml) and compound (1,000 μg/ml); after 35 days
Procedure: Meth A fibrosarcomas were suspended in phosphate buffered physiological saline (1×10^6 cells/ml). Separately, a solution of a compound of the invention in physiological saline was prepared (1,000 μg/ml). An equivalent weight mixture of these two solution (0.2 ml) was subcutaneously injected into BALB/C mouse (20 mice per group). Survival rate after 35 days was measured.

[3] = Stimulation effect on antibody producing cells (plaque numbers, Cunningham technique); assay type: in vivo, ICR mouse; conditions: for Plaque No.: ICR mouse, SRBC i.v. and compound 500 μg/ml, 0.2 ml i.v., splenic cells after 4 days; for Stimulation index: plaque number relative to control (saline) = 1
Procedure: (5) Stimulation effect on anti-body precluding cells
A solution of sheep […] (SRBC) in phosphate buffered physiological saline (5×10^7 cells/ml), 0.2 ml was injected into tail intravenous vein of ICR mouse (7 mice per group). At the same time, a solution of a compound of the invention in physiological saline (500 μg/ml), 0.2 ml was similarly injected. After 4 days, lien was picked up from the treated mouse to obtain splenic cells. Plaque numbers were measured by Cunningham technique.

[4] = test system: leukemia cells of L-1210 mouse; assay: Activation for macrophages: cytostatic rate of intraperitoneal macrophages on leukemia cells; assay type: in vivo; conditions: CDF1 mouse i.p. 500 μg/ml, 0.2 ml; macrophages collected after 4 days; macrophages:L-1210 cells 20:1; 72 hours
Procedure: (4) Activation for macrophages
A test solution of a compound of the invention in physicological saline (500 μg/ml, 0.2 ml) was intraperioneally injected into CDF1 mouse (one group consisting of mice). Intraperioneal macrophages which were collected after 4 days and leukemia cells of L-1210 mouse were mixed at the cell ratio of 20 and 1. Each 200 μl of the mixture was put on a microplate having 96 holes. After 72 hours, numbers of cells in each holes were counted, and cytostatic rate of the mixture was measured.

[5] = test system: influenza HA vaccine (A/Bangkok/10/83 strain, H1N1); assay: Enhancing effect on influenza HA vaccine (adjuvant activity), ELISA; assay type: in vivo; conditions: CDF1 mouse, compound (100 μg/ml) mixed with influenza HA vaccine (100 CCA/ml)
Procedure: (3) Enhancing effect on influenza HA vaccine (adjuvant activity)
A compound of the invention was dissolved or suspended in physiological saline (100 μg/ml). Separately, influenza HA vaccine (A/Bangkok/10/83 strain, H1N1) was dissolved in physiological saline (100 CCA/ml). These two solutions were mixed in an equivalent weight to make the test solution. Control is a solution excluded the compound of the invention from the test solution.
The test solution was administered into CDF1 mouse in a similar way to that of the test of enhancing action for hepatitis vaccine as mentioned above, to obtain primary and secondary response sera.

E. coli (JC-2) = assay: Phylactic effect, E. coli infection; assay type: in vivo; conditions: ICR mouse; compound 500 μg/ml, 0.2 ml i.p. one day before infection i.p. 1×10^7 /mouse; after 7 days of infection
Procedure: as §1

Compound	Survival rate, Psud. aeruginosa [1] [%]	Swelling of Foot-pad (BCG killed vaccine) [× 0.01 mm]	Anti HBs-ELISA unit, Primary response serum [2]	Anti HBs-ELISA unit, Secondary response serum [2]	Survival rate (Meth A fibrosarcomas) [%]	Plaque No. [3]	Stimulation index [3]	Cytostatic rate [4] [%]	Anti-influenza HA virus ELISA unit, Primary response serum [5]	Anti-influenza HA virus ELISA unit, Secondary response serum [5]	Survival rate, E. coli (E. coli (JC-2)) [%]
CCCCCCCCCCCC(=O)O[C@H](CCCCCCCCCCC)CC(=O)OC[C@H]1OC(O)[C@H](NC(C)=O)[C@@H](O[C@H](C)C(=O)N[C@@H](C)C(=O)N[C@H](CCC(=O)OC)C(N)=O)[C@@H]1O (stereo partly drawn) [Example 1, N-[[2-O-{2-Acetamido-2,3-dideoxy-6-O-[(3R)-3-dodecanoyloxytetradecanoyl]-D-glucopyranos-3-yl}-D-lactoyl]]-L-alanyl-D-isoglutamine methyl ester]	45	59.2 ± 15.1	10,800 ELISA unit	150,000 ELISA unit	30	10.56 ± 8.3 × 10^3	2.2	40.0 ± 1.2	4,800 ELISA unit	34,000 ELISA unit	50
CCCCCCCCCCCCCC(=O)O[C@H](CCCCCCCCCCC)CC(=O)OC[C@H]1OC(O)[C@H](NC(C)=O)[C@@H](O[C@H](C)C(=O)N[C@@H](C)C(=O)N[C@H](CCC(=O)OC)C(N)=O)[C@@H]1O (stereo partly drawn) [Example 2, N-[[2-O-{2-Acetamido-2,3-dideoxy-6-O-[(3R)-3-tetradecanoyloxytetradecanoyl]-D-glucopyranos-3-yl}-D-lactoyl]]-L-alanyl-D-isoglutamine methyl ester]	45	57.4 ± 16.3	6,000 ELISA unit	195,000 ELISA unit	30	8.23 ± 7.2 × 10^3	1.7	45.2 ± 1.1	3,100 ELISA unit	33,000 ELISA unit	55
CCCCCCCCCCCCCCCC(=O)O[C@H](CCCCCCCCCCC)CC(=O)OC[C@H]1OC(O)[C@H](NC(C)=O)[C@@H](O[C@H](C)C(=O)N[C@@H](C)C(=O)N[C@H](CCC(=O)OC)C(N)=O)[C@@H]1O (stereo partly drawn) [Example 3, N-[[2-O-{2-Acetamido-2,3-dideoxy-6-O-[(3R)-3-hexadecanoyloytetradecanoyl]-D-glucopyranos-3-yl}-D-lactoyl]]-L-alanyl-D-isoglutamine methyl ester]	40	66.2 ± 12.3	24,000 ELISA unit	575,000 ELISA unit	20	21.23 ± 9.9 × 10^3	4.4	22.3 ± 1.0	5,200 ELISA unit	57,000 ELISA unit	45
CCCCCCCCCCCC(=O)O[C@H](CCCCCCCCCCC)CC(=O)OC[C@H]1OC[C@H](NC(C)=O)[C@@H](O[C@H](C)C(=O)N[C@@H](C)C(=O)N[C@H](CCC(=O)OC)C(N)=O)[C@@H]1O [Example 4]	50	78.6 ± 19.1	5,200 ELISA unit	175,000 ELISA unit	35	6.67 ± 3.6 × 10^3	1.4	55.2 ± 2.8	2,300 ELISA unit	32,000 ELISA unit	65
